This series in a line: solvent given as SMILES.

Molecules are shown by their SMILES.

The compound `O=C(O)CCCCCn1c2ccc(Br)cc2c(=O)c2cc3c(cc21)c(=O)c1cc(Br)ccc1n3CCCCCC(=O)O` had a fluorescence lifetime (in CO) of 17.3 ns.

Under “in ClC(Cl)Cl”, `CCc1ccc(-n2c3ccccc3c3cc4c(cc32)c2ccccc2n4-c2ccc(CC)s2)s1` displayed a fluorescence lifetime of 0.63 ns.

`c1ccc2c(-n3cnc4ccccc43)cccc2c1`: the fluorescence lifetime (in C1CCCCC1) amounted to 5.1 ns, the fluorescence lifetime (in CCOC(C)=O) was 4.6 ns and the fluorescence lifetime (in CO) was 4.3 ns.

For `Fc1c(-n2c3ccccc3c3ccccc32)c(F)c(-n2c3ccccc3c3ccccc32)c(-c2nnc(-c3ccccc3)o2)c1-n1c2ccccc2c2ccccc21`, the fluorescence lifetime (in Cc1ccccc1) is 3.9 ns.

Where the note is “in C1CCCCC1”, `CN(C)c1ccccc1` returned a fluorescence lifetime of 3 ns.

`Cn1c(=O)c(/N=N/c2ccc(S(=O)(=O)O)c3ccccc23)c(O)c2ccccc21` displayed a fluorescence lifetime (in CS(C)=O) of 0.05 ns.

`O=S(=O)(c1ccc(N2c3ccccc3[Si](c3ccccc3)(c3ccccc3)c3ccccc32)cc1)c1ccc(N2c3ccccc3[Si](c3ccccc3)(c3ccccc3)c3ccccc32)cc1` registered a fluorescence lifetime (in c1cc(-n2c3ccccc3c3ccccc32)cc(-n2c3ccccc3c3ccccc32)c1) of 4 ns.

`Nc1ccc2[nH]ncc2c1`: the fluorescence lifetime came to 4.9 ns (in C1CCCCC1), 4.7 ns (in CC#N), 6.4 ns (in CO) and 12.5 ns (in O).

Turning to `C[Si]1(C)c2ccc(-c3ccc(-c4cccs4)s3)cc2C=Cc2cc(-c3ccc(-c4cccs4)s3)ccc21`, the fluorescence lifetime (in ClCCl) is 0.47 ns.

Regarding `COc1ccc(-c2ccc(-c3ccc(C#N)s3)s2)cc1`, the fluorescence lifetime is, setting by setting: (in C1CCCCC1) 0.23 ns; (in C1COCCO1) 0.38 ns; (in CC#N) 0.97 ns; (in CC(C)O) 0.89 ns; (in CCCCO) 0.91 ns; (in CCO) 0.93 ns. The fluorescence lifetime is, setting by setting: (in CCOC(C)=O) 0.44 ns; (in CN(C)C=O) 1.44 ns; (in CO) 1.06 ns; (in CS(C)=O) 1.76 ns; (in Cc1ccccc1) 0.34 ns; (in ClC(Cl)Cl) 0.6 ns. Also, the fluorescence lifetime amounted to 0.74 ns (in ClCCl) and 0.91 ns (in O).

With `Cc1cc(C)c2c(c1)c1cc(C)cc(C)c1n2-c1ccc2c(c1)Oc1cc3c(cc1B2c1c(C(C)C)cc(C(C)C)cc1C(C)C)B(c1c(C(C)C)cc(C(C)C)cc1C(C)C)c1ccccc1O3`, the fluorescence lifetime by setting is: (in Cc1ccccc1) 21 ns; (in O=P(c1ccccc1)(c1ccccc1)c1ccc2oc3ccc(P(=O)(c4ccccc4)c4ccccc4)cc3c2c1) 25 ns.

Regarding `C(#Cc1ccc(C#Cc2ccc(C#Cc3ccccc3)cc2)cc1)c1ccccc1`, where the note is “in ClC(Cl)Cl”, the fluorescence lifetime was 1.7 ns.

Consider `COc1ccc2c3c(OC)c4ccccc4c(OC)c3n(C)c2c1`, for which the fluorescence lifetime was 14.3 ns (in C1CCCCC1), 19.1 ns (in CC#N), 18.3 ns (in CO) and 12.1 ns (in ClCCl).

`CCOC(=O)/N=c1/oc2c(OC)cccc2cc1C#N` returned a fluorescence lifetime (in ClCCl) of 0.3 ns.

Compound `COc1ccc(C2=C(c3ccc(-c4ccccc4)cc3)C(c3ccccc3)=[N+]3C2=Nc2c(-c4ccc(OC)cc4)c(-c4ccc(-c5ccccc5)cc4)c(-c4ccccc4)n2[B-]3(F)F)cc1` showed a fluorescence lifetime (in Cc1ccccc1) of 0.14 ns.

In turn, `c1ccc(C2=C(c3ccccc3)[Si](c3ccccc3)(c3ccccc3)c3ccccc32)cc1` displayed a fluorescence lifetime (in C1CCOC1) of 1.98 ns.

With `COc1ccccc1-c1nc(-c2ccccc2)c2ccccn12`, the fluorescence lifetime (in CC#N) came out at 7.5 ns.

With `c1ccc2c(c1)[nH]c1ccccc12`, the fluorescence lifetime runs as follows: (in CC#N) 15.1 ns; (in CCCCCC) 14.2 ns; (in CCO) 16.1 ns.

As to `CC[n+]1nc2cc3c4c(c2c2cc(F)ccc21)CCCN4CCC3`, for the setting “in O”, the fluorescence lifetime was 4.4 ns.

Regarding `O=P1(c2ccccc2)C(c2ccccc2)=Cc2cc3ccccc3cc21` (configuration not stated), for the setting “in ClCCl”, the fluorescence lifetime was determined as 3.5 ns.

The compound `CCCCN1C(=O)c2cc(Br)c3c4c(Br)c(Br)c5c6c(cc(Br)c(c7c(Br)c(Br)c(c2c37)C1=O)c64)C(=O)N(CCCC)C5=O` displayed a fluorescence lifetime (in ClC(Cl)Cl) of 1.1 ns.

Consider `C=CCOc1nnc(OCCC(F)(F)C(F)(F)C(F)(F)C(F)(F)C(F)(F)C(F)(F)C(F)(F)C(F)(F)F)nn1`, for which the fluorescence lifetime by setting is: (in ClCCl) 63.4 ns; (in OCC(F)(F)F) 8.5 ns.

The compound `Cc1ccc(C2=C3C=CC4=[N+]3[P-](=O)(=O)n3c2ccc3-c2ccc([nH]2)/C(c2ccc(C)cc2)=c2/cc/c(o2)=C(\c2ccc(C)cc2)c2ccc4[nH]2)cc1` registered a fluorescence lifetime (in ClC(Cl)Cl) of 4.3 ns.

Take `COc1cc(N(c2ccccc2)c2ccc(C=C(C#N)C#N)c(OC)c2)ccc1C=C(C#N)C#N`: the fluorescence lifetime is, setting by setting: (in C1COCCO1) 0.925 ns; (in CC#N) 0.026 ns; (in CC(C)=O) 0.049 ns; (in CCOC(C)=O) 0.22 ns; (in CN(C)C=O) 0.23 ns; (in CO) 0.11 ns. The fluorescence lifetime stood at 0.051 ns (in Cc1ccccc1), 0.23 ns (in ClC(Cl)Cl) and 0.15 ns (in ClCCl).

In turn, `c1ccc(-c2cnc3nn4ccccc4c3c2)cc1` displayed a fluorescence lifetime (in C1CCOC1) of 4.7 ns.

As for `Cc1cc(C)n2c1C=C1c3ccccc3C(c3c[nH]c4ccccc34)=[N+]1[B-]2(F)F`, the fluorescence lifetime (in ClCCl) was 6.42 ns.

For `Cc1ccc(-c2cc(-c3ccccc3)c3c(N)nc(N4CCCC4)c(C#N)c3n2)cc1`, the fluorescence lifetime by setting is: (in CC#N) 10.3 ns; (in CC(C)=O) 9.9 ns; (in CC(C)O) 10.4 ns; (in CO) 8.5 ns; (in ClC(Cl)Cl) 13.1 ns; (in ClCCl) 13.1 ns. This compound had a fluorescence lifetime (in c1ccccc1) of 12.6 ns.

`Cc1ccc(/C2=c3\cc/c(o3)=C(\c3ccc(C)cc3)c3ccc([nH]3)-c3ccc4n3[P-](=O)(=O)[N+]3=C(C=CC3=C4c3ccco3)c3ccc2[nH]3)cc1` gave a fluorescence lifetime (in ClC(Cl)Cl) of 4.2 ns.

Consider `CC(C)c1cccc(C(C)C)c1N1C(=O)c2cccc3c(Oc4ccc(Cl)cc4)ccc(c23)C1=O`, for which, where the note is “in ClCCl”, the fluorescence lifetime stood at 3.95 ns.

In turn, `COc1ccc(Nc2nc(/C=C/c3ccccc3)[n+]([O-])c3c2CCCC3)cc1` returned a fluorescence lifetime (in ClCCl) of 8.2 ns.

Take `COc1c2ccccc2c(OC)c2c1c1cc(F)ccc1n2C`: the fluorescence lifetime is 25 ns (in C1CCCCC1), 25.3 ns (in CC#N), 26.7 ns (in CO) and 23.2 ns (in ClCCl).

For `COC(=O)c1ccc(C#Cc2ccc(N(C)C)cc2)cc1`, the fluorescence lifetime runs as follows: (in C1CCCCC1) 1.35 ns; (in C1CCOC1) 2.43 ns; (in C1COCCO1) 2.38 ns; (in CC1CCCO1) 2.68 ns; (in CC#N) 1.48 ns; (in CC(C)=O) 1.51 ns. For the same compound, the fluorescence lifetime reads like this: (in CC(C)CC(C)(C)C) 0.73 ns; (in CC(C)O) 1.32 ns; (in CCCCCCCCCCCCCCCC) 0.75 ns; (in CCCCCCCCCCCCCCCCCl) 0.92 ns; (in CCOC(C)=O) 2.47 ns; (in CCOCC) 0.959 ns. Further, the fluorescence lifetime runs as follows: (in CN(C)C=O) 1.7 ns; (in CS(C)=O) 1.92 ns; (in Cc1ccccc1) 0.9 ns.

Take `Cc1c(C(=O)c2ccc3c4cccc5cccc(c6cccc2c63)c54)c2ccc3cccc4c5cccc6ccc1c(c65)c2c34`: the fluorescence lifetime (in ClCCl) is 1.1 ns.

Turning to `CC(C)(C)NC(=O)c1c([Si](C)(C)C)cc2ccc3cccc4ccc1c2c34`, the fluorescence lifetime (in ClC(Cl)Cl) is 6.53 ns.

For the setting “in ClCCl”, `CCOc1cccc2c1O[B-](F)(F)[n+]1c3c(c4c(c1-2)-c1ccccc1CC4)-c1ccccc1CC3` showed a fluorescence lifetime of 1.73 ns.

Consider `O=[N+]([O-])c1ccc(/C=C/c2nc3c4ccccc4c4ccccc4c3o2)cc1`, for which the fluorescence lifetime (in CC#N) was determined as 3.01 ns.

With `C(=C\c1nc2ccccc2[nH]1)/c1ccc(/C=C/c2nc3ccccc3[nH]2)cc1`, the fluorescence lifetime amounted to 1.02 ns (in C1CCOC1); 1.12 ns (in CC#N); 1.07 ns (in CC(C)=O); 0.997 ns (in CN(C)C=O); 1.06 ns (in CO); 0.919 ns (in CS(C)=O).

Regarding `CC(=O)OC[C@@H]1O[C@H](n2cnc3c2N=CN2Cc4c[n+](C)c(C)nc4N=C32)[C@@H](O)[C@H]1O`, the fluorescence lifetime runs as follows: (in CC#N) 3.5 ns; (in CCO) 3.24 ns; (in O) 3.28 ns.

`N#Cc1ccc(C2=Cc3ccccc3P2(=O)c2ccccc2)cc1` (configuration not stated) showed a fluorescence lifetime (in ClCCl) of 4.8 ns.

For the compound `CCCCc1cc(-c2cccc(COC)c2)oc1-c1cccc(-c2oc(-c3cccc(COC)c3)cc2CCCC)c1`, the fluorescence lifetime (in ClC(Cl)Cl) came to 1.4 ns.

Take `Cc1ccc(-c2ccc(/C=C/c3ccc([N+](=O)[O-])cc3)cn2)nc1`: where the note is “in CC#N”, the fluorescence lifetime is 0.31 ns.

The compound `COc1ccc(C2=C(c3ccc(OC)cc3)[Si](c3ccccc3)(c3ccccc3)c3ccccc32)cc1` returned a fluorescence lifetime (in C1CCOC1) of 1.37 ns.

For the compound `CCCCN1/C(=C\c2c(-c3ccc(N(C)C)cc3)c(=O)c2=O)C=Cc2ccccc21`, the fluorescence lifetime reads like this: (in C1CCCCC1) 1.06 ns; (in Cc1ccccc1) 2.99 ns; (in ClCCl) 0.6 ns.

`COc1ccc2ccc([O-])cc2c1` gave a fluorescence lifetime (in O) of 4 ns.

On to `Nc1ccc2c(c1)-c1ccccc1C2=O`, for which the fluorescence lifetime came out at 5.9 ns (in CC#N) and 11 ns (in c1ccccc1).

Under “in C1CCCCC1”, `CN(C)c1ccc2nc(-c3ccc(C=C4C(=O)c5ccccc5C4=O)cc3)sc2c1` had a fluorescence lifetime of 0.41 ns.

In turn, `CN(C)c1ccc(/C=C/c2cc[n+](Cc3cc(C[n+]4ccc(/C=C/c5ccc(N(C)C)cc5)cc4)cc(C[n+]4ccc(/C=C/c5ccc(N(C)C)cc5)cc4)c3)cc2)cc1` had a fluorescence lifetime (in CCCCCCCCO) of 0.64 ns; a fluorescence lifetime (in CCO) of 0.06 ns; a fluorescence lifetime (in CO) of 0.04 ns; a fluorescence lifetime (in ClC(Cl)Cl) of 0.64 ns; a fluorescence lifetime (in ClCCl) of 0.32 ns.

Values taken from the Deep4Chem optical property database.
